The numbers were not newly measured in patent US20050163837A1, “Rosiglitazone formulations” (priority 2003, published 2005), which cites them from elsewhere.

In series [1] the test system is animal models of type 2 diabetes.

For `CN(CCOc1ccc(CC2SC(=O)NC2=O)cc1)c1ccccn1` (stereo not drawn) [Rosiglitazone, 5-[4-[2-(N-methyl-N-(2-pyridyl)amino)ethoxy]benzyl]thiazolidine-2,4-dione], in the series with mouse models of diabetes (mouse models), the “development of overt diabetes” value was “prevent the development of overt diabetes”. In addition, in the series with mouse models of diabetes (several mouse models of diabetes), the “blood glucose levels and hyperinsulinemia” value was “reduce blood glucose levels and hyperinsulinemia”. Besides, the “induction of hypoglycemia or impaired glucose tolerance” value in series [1] was “did not induce hypoglycemia or impaired glucose tolerance”.
